Reference: the supplement of paper PMC5770543
± gives the standard deviation.

Legend:
[1] = system: Plasmodium falciparum 3D7; assay: EC50 growth inhibition (60 h, SYBR Green); settings: stage: ring-stage start
[2] = system: Toxoplasma gondii RH tachyzoites; assay: % growth inhibition vs DMSO (48 h luciferase); higher = more inhibition; settings: 10 µM;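 also: tested in triplicate wells of 96-well plates on confluent HFF monolayers, with 1% DMSO wells as negative control in four replicates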
[3] = system: Plasmodium falciparum 3D7; assay: % inhibition of schizont-to-ring transition vs DMSO; higher = more inhibition
How it was run: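 Schizont-to-ring transition inhibition compares new ring formation with that in vehicle controls. Synchronised P. falciparum schizonts (about 40–42 hours post-invasion, 1% parasitemia, 2.5% hematocrit, AlbuMAX-supplemented RPMI) were exposed to 1, 3 or 10 µM compound, after which rings were counted by Hoechst 33342 flow cytometry across three experiments.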

`COc1cc2c3cc1Oc1c(OC)c(OC)cc4c1C(Cc1ccc(O)c(c1)Oc1ccc(cc1)CC3N(C)CC2)N(C)CC4` (stereo not given) was tested, and the EC50 growth inhibition [1] was 1360 nM, the “% growth inhibition” value [2] was 51.7 ± 6.6% and the “% inhibition of schizont-to-ring transition” value (shortened to “% inhibition”) ([3]; 1 µM) was 0.0123%. The “% inhibition” value ([3]; 3 µM) was 3.67% and the “% inhibition” value ([3]; 10 µM) was 27.2%.
`CC(C)(C)CC(C)(C)NCC(O)COc1ccc2c(c1)CCC2` (stereo not given) was tested, and the EC50 growth inhibition [1] was 4380 nM, the “% growth inhibition” value [2] was 61.6 ± 1.5% and the “% inhibition” value ([3]; 1 µM) was 17.3%. For the same compound, the “% inhibition” value ([3]; 3 µM) was 26.1% and the “% inhibition” value ([3]; 10 µM) was 47.6%.
For `Cc1ccc(OCCCCCCNCCO)c(C)c1`, the EC50 growth inhibition [1] was 2870 nM, the “% growth inhibition” value [2] was 76.2 ± 4.2% and the “% inhibition” value ([3]; 1 µM) was 6.39%. For the same compound, the “% inhibition” value ([3]; 3 µM) was 6.91% and the “% inhibition” value ([3]; 10 µM) was 13.8%.
With `CCOC(=O)c1cnc2ccc(OC)cc2c1Nc1ccc(N2CCN(C)CC2)cc1` the EC50 growth inhibition [1] was 2980 nM, the “% growth inhibition” value [2] was 24.9 ± 43% and the “% inhibition” value ([3]; 1 µM) was 46.5%. The “% inhibition” value ([3]; 3 µM) was 63.7% and the “% inhibition” value ([3]; 10 µM) was 78.1%.
With `CN(N=O)C1=C(NC2CCCCC2)C(=O)c2ccccc2C1=O` the EC50 growth inhibition [1] was 1520 nM, the “% growth inhibition” value [2] was 57.2 ± 5.8% and the “% inhibition” value ([3]; 1 µM) was 33.3%. For the same compound, the “% inhibition” value ([3]; 3 µM) was 57.9% and the “% inhibition” value ([3]; 10 µM) was 65.4%.
`CCOc1ccc(C2N(C)c3ccccc3N2C)cc1` was tested, and the EC50 growth inhibition [1] was 5840 nM, the “% growth inhibition” value [2] was 49.6 ± 43% and the “% inhibition” value ([3]; 1 µM) was 15.8%. For the same compound, the “% inhibition” value ([3]; 3 µM) was 20.8% and the “% inhibition” value ([3]; 10 µM) was 40.5%.
In the case of `COc1cc(OC)cc(N2C(=O)N(Cc3ccc(C(C)(C)C)cc3)c3ccccc3S2(=O)=O)c1`, the EC50 growth inhibition [1] is reported as 3500 nM, the “% growth inhibition” value [2] is reported as 57.3 ± 12% and the “% inhibition” value ([3]; 1 µM) is reported as 13.8%. For the same compound, the “% inhibition” value ([3]; 3 µM) was 15.2% and the “% inhibition” value ([3]; 10 µM) was 47.7%.
`Oc1ccc(C(=C(Cl)Cl)c2ccc(O)cc2)cc1` was tested, and the EC50 growth inhibition [1] was 877 nM, the “% growth inhibition” value [2] was 78.3 ± 3.7% and the “% inhibition” value ([3]; 1 µM) was 11.4%. For the same compound, the “% inhibition” value ([3]; 3 µM) was 53.3% and the “% inhibition” value ([3]; 10 µM) was 73.2%.
`C=CCc1c(C)nc2ccccc2c1O` was tested, and the EC50 growth inhibition [1] was 2260 nM, the “% growth inhibition” value [2] was 72.7 ± 2.5% and the “% inhibition” value ([3]; 1 µM) was 27.3%. The “% inhibition” value ([3]; 3 µM) was 29.6% and the “% inhibition” value ([3]; 10 µM) was 40.5%.
For `Cc1cc(NCCN2CCCCC2)c2ccc3ccccc3c2n1`, the EC50 growth inhibition [1] was 123 nM, the “% growth inhibition” value [2] was 78.3 ± 6.7% and the “% inhibition” value ([3]; 1 µM) was 46.4%. The “% inhibition” value ([3]; 3 µM) was 52.1% and the “% inhibition” value ([3]; 10 µM) was 69.7%.
`O=C(Nc1nc(-c2ccccn2)cs1)c1ccccc1Br` was tested, and the EC50 growth inhibition [1] was 2160 nM, the “% growth inhibition” value [2] was 98.44 ± 0.08% and the “% inhibition” value ([3]; 1 µM) was 11%. The “% inhibition” value ([3]; 3 µM) was 13.5% and the “% inhibition” value ([3]; 10 µM) was 34.1%.
With `CCOC(=O)c1c(C)n(-c2ccc(Cl)cc2)c2ccc(OC(=O)C=Cc3ccccc3)cc12` the EC50 growth inhibition [1] was 1020 nM, the “% growth inhibition” value [2] was 69.3 ± 5% and the “% inhibition” value ([3]; 1 µM) was 5%. The “% inhibition” value ([3]; 3 µM) was 7.44% and the “% inhibition” value ([3]; 10 µM) was 21.6%.
In the case of `COc1ccc2nc(C)cc(Nc3ccccc3O)c2c1`, the EC50 growth inhibition [1] is reported as 438 nM, the “% growth inhibition” value [2] is reported as 22.7 ± 2.9% and the “% inhibition” value ([3]; 1 µM) is reported as 20.4%. The “% inhibition” value ([3]; 3 µM) was 41.3% and the “% inhibition” value ([3]; 10 µM) was 66.3%.
For `Oc1ccccc1CNCC12CC3CC(CC(C3)C1)C2`, the EC50 growth inhibition [1] was 96.1 nM, the “% growth inhibition” value [2] was 52.8 ± 12% and the “% inhibition” value ([3]; 1 µM) was 64%. For the same compound, the “% inhibition” value ([3]; 3 µM) was 64.7% and the “% inhibition” value ([3]; 10 µM) was 67.1%.
For `Cc1ccc(C)c(Cn2c(N3CCC(C(=O)NCc4cccs4)CC3)nc3ccccc32)c1`, the EC50 growth inhibition [1] was 6140 nM, the “% growth inhibition” value [2] was 79.1 ± 1.9% and the “% inhibition” value ([3]; 1 µM) was 18.6%. For the same compound, the “% inhibition” value ([3]; 3 µM) was 69.7% and the “% inhibition” value ([3]; 10 µM) was 68.4%.
For `CCCc1c(CC)c(=N)c2ccccc2n1C`, the EC50 growth inhibition [1] was 6030 nM, the “% growth inhibition” value [2] was 38.7 ± 9.2% and the “% inhibition” value ([3]; 1 µM) was 7.3%. The “% inhibition” value ([3]; 3 µM) was 8.61% and the “% inhibition” value ([3]; 10 µM) was 31%.
For `CC1CN(C(=O)c2sc3ccccc3c2Cl)CC(C)O1` (stereo not given), the EC50 growth inhibition [1] was 29.1 nM, the “% growth inhibition” value [2] was 74 ± 3.4% and the “% inhibition” value ([3]; 1 µM) was 15.7%. The “% inhibition” value ([3]; 3 µM) was 21.4% and the “% inhibition” value ([3]; 10 µM) was 24.2%.
With `CCC(C)NCC(O)(c1ccc(Cl)cc1)c1ccc(Cl)cc1` (stereo not given) the EC50 growth inhibition [1] was 632 nM, the “% growth inhibition” value [2] was 74.6 ± 8.3% and the “% inhibition” value ([3]; 1 µM) was 38.4%. The “% inhibition” value ([3]; 3 µM) was 57% and the “% inhibition” value ([3]; 10 µM) was 63.8%.
